Measured values reported in ChEMBL document CHEMBL1201862, “PubChem BioAssay data set” (2004).
The source made the active and inactive calls.

Key:
[1] = molecular target: SUMO E1/E2 (Homo sapiens, UniProt P63279+Q9UBE0+Q9UBT2); experiment: SAR analysis of SUMOylation using HTRF in an in-Vitro dose response assay. [Related pubchem assays (depositor defined):AID2006, AID2011, AID2018, AID2069, AID2658]; format: functional
[2] = molecular target: T1, Streptokinase A (Streptococcus pyogenes serotype M1, UniProt P10520); experiment: viability-normalized secreted streptokinase activity reduction – plasminogen activation absorbance, OD405, dose response (AID 1914); format: functional, Streptococcus pyogenes M1 GAS;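 note: secreted streptokinase activity via plasminogen activation per viability signal from cell pellet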
T1 sequence (P10520 whole entry): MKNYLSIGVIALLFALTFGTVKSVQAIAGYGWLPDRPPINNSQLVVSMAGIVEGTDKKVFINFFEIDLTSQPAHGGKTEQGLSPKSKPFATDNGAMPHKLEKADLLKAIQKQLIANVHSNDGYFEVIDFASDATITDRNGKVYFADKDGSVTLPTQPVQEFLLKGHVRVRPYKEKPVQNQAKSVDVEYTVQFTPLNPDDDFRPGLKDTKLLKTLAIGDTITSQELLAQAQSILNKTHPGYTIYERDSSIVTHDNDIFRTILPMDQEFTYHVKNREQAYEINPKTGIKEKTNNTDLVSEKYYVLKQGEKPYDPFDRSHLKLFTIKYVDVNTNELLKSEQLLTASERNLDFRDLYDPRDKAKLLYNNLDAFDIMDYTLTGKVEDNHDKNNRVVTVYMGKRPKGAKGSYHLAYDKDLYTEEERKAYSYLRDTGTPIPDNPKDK

[3] = molecular target: T2, Tyrosyl-DNA phosphodiesterase 2 (Homo sapiens, UniProt O95551); experiment: potency against TDP2 phosphodiesterase activity – biochemical, epi absorbance, IC50, dose response (AID 743297)
T2 sequence (O95551 whole entry): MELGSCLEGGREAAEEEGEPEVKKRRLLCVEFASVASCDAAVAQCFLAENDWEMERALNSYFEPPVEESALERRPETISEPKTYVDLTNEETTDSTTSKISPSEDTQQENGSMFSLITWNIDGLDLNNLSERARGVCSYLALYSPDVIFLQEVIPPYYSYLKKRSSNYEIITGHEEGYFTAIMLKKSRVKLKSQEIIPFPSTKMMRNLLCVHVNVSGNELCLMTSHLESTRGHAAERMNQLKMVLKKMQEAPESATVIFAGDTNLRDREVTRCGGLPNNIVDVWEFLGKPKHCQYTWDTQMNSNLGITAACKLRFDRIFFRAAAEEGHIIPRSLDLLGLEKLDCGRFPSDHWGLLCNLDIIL

[4] = test system: INS1; experiment: INS-1E survival protection against cytokine death – cell-based, luminescence, retest, dose response (AID 449756); format: functional; settings: Rattus norvegicus;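 note: cell death triggered by IL-1 beta plus TNF-alpha plus IFN-gamma mixture; protective hits raise ATP signal compared with cytokine alone wells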
[5] = molecular target: T3, Replicative DNA helicase DnaB (Mycobacterium tuberculosis, UniProt P9WMR3); experiment: DnaB intein splicing inhibitors, dose response, biochemical, cell-free fluorescence (AID 449749); format: functional
T3 sequence (P9WMR3 whole entry): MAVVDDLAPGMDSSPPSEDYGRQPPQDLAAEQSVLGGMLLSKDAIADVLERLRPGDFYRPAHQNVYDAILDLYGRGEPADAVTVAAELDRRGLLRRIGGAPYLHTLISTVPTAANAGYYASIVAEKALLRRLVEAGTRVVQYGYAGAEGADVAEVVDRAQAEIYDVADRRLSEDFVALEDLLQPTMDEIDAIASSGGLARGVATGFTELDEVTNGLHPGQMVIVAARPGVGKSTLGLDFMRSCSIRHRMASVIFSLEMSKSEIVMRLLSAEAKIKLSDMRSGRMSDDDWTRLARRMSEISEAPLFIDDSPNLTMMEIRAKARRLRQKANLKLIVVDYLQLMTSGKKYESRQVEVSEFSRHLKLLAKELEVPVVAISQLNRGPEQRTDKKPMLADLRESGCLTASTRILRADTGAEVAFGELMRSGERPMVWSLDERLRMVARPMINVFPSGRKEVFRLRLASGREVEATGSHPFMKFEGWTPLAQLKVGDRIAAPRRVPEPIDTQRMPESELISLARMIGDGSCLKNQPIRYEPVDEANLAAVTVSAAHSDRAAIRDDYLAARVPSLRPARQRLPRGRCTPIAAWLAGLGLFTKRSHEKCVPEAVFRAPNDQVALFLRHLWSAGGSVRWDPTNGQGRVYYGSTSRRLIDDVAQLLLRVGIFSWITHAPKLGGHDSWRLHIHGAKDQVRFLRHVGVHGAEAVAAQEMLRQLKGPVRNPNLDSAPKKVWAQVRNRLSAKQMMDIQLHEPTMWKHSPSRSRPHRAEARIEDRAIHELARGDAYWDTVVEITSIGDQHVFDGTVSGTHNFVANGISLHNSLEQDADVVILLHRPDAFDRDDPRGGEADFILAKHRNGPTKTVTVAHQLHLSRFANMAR

Sequence of SUMO E1/E2 (Q9UBE0 whole entry): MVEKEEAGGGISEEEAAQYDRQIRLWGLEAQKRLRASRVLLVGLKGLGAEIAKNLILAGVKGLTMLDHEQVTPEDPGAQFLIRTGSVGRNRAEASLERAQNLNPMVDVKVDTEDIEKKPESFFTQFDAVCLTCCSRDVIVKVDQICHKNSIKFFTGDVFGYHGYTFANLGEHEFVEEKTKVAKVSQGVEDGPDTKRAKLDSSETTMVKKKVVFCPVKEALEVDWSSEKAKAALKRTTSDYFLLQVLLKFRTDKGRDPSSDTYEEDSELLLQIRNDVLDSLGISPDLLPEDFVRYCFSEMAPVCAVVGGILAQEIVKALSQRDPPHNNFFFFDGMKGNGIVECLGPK
Sequence of SUMO E1/E2 (Q9UBT2 whole entry): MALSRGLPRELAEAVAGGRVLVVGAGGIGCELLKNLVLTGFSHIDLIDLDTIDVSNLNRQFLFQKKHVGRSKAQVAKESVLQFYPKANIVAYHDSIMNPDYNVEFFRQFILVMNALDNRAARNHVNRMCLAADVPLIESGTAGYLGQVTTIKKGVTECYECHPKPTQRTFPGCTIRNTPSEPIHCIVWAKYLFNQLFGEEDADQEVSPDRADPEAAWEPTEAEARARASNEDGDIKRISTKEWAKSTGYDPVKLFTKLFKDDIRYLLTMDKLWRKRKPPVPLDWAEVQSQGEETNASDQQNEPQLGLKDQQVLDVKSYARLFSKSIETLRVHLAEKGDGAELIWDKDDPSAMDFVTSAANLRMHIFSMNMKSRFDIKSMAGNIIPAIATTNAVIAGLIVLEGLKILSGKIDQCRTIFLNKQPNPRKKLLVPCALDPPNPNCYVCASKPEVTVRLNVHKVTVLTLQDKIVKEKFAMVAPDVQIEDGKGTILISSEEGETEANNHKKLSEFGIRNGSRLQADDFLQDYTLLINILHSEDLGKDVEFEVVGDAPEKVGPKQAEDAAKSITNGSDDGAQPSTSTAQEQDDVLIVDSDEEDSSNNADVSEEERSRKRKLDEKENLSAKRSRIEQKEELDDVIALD
Sequence of SUMO E1/E2 (P63279 whole entry): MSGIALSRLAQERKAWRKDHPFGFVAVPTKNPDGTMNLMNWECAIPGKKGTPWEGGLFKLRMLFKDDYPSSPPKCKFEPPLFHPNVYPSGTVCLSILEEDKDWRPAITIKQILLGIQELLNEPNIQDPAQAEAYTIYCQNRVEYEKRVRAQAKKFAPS

CCCCn1c(NS(=O)(=O)c2ccccc2)c(S(=O)(=O)c2ccc(C)cc2)c2nc3ccccc3nc21
IC50 [1]: 4.2 µM (active)
EC50 [2]: 18.2 µM (active)
IC50 [3]: 7.83 µM (active)
AC50 [4]: 20.5 µM (active)
AC50 [5]: > 380 µM (inactive)
